From patent US11130748B2, “Compounds” (MISSION THERAPEUTICS LIMITED, priority 2015, dated 2021)
pIC50: −log10 of the molar value.

target: USP30 (Homo sapiens (Human), UniProt Q70CQ3); experiment: USP30 biochemical IC50 assay; details: not given
Procedure: USP30 Biochemical IC50 Assay
Dilution plates were prepared at 21 times the final concentration (2100 μM for a final concentration of 100 μM) in 50% DMSO in a 96-well polypropylene V-bottom plate (Greiner #651201). A typical 8-point dilution series to be 100, 30, 10, 3, 1, 0.3, 0.1, 0.03 μM final. Reactions were performed in duplicate in black 384 well plates (small volume, Greiner 784076) in a final reaction volume of 21 μl. Either 1 μl of 50% DMSO or diluted compound was added to the plate. USP30 was diluted in reaction buffer (40 mM Tris, pH 7.5, 0.005% Tween 20, 0.5 mg/ml BSA, 5 mM beta-mercaptoethanol) to the equivalent of 0.05 μl/well and 10 μl of diluted USP30 was added to the compound. Enzyme and compound were incubated for 30 min at room temp. Reactions were initiated by the addition of 50 nM of TAMRA labelled peptide linked to ubiquitin via an iso-peptide bond as fluorescence polarisation substrate. Reactions were read immediately after addition of substrate and following a 2 hr incubation at room temperature. Readings were performed on a Pherastar Plus (BMG Labtech). λ Excitation 540 nm; λ Emission 590 nm.

USP30, sequence (Q70CQ3 57-517): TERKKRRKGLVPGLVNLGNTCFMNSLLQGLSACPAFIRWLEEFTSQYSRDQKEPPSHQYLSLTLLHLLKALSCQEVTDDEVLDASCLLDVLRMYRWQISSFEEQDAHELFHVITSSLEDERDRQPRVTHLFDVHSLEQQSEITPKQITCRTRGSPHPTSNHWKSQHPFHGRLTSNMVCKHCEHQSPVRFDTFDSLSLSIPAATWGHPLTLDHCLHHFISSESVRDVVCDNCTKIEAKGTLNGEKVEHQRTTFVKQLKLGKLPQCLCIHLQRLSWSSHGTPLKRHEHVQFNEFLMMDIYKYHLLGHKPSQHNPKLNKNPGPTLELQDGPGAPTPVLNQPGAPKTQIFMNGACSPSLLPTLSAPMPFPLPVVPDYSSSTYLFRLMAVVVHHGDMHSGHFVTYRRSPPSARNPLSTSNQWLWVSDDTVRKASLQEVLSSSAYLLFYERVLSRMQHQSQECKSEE

SMILES | pIC50
N#CN1CCC(CNC(=O)c2nn(Cc3ccccc3)c3ccccc23)C1 (stereo not drawn) [Example 29, 1-Benzyl-N-((1-cyanopyrrolidin-3-yl)methyl)-1H-indazole-3-carboxamide] | 5.00 to 6.00

same assay, conditions: fluorescence polarisation, TAMRA labelled peptide linked to ubiquitin; 30 min pre-incubation, 2 hr read; read-out: IC50 range

SMILES | pIC50
N#CN1CC[C@@H](CNc2nccc(-c3ccccc3)n2)C1 [Example 19, (S)-3-(((4-Phenylpyrimidin-2-yl)amino)methyl)pyrrolidine-1-carbonitrile] | 5.00 to 6.00
N#CN1CCC(CNc2cc(-c3ccccc3)ccn2)C1 (stereo not drawn) [Example 5, 3-(((4-Phenylpyridin-2-yl)amino)methyl)pyrrolidine-1-carbonitrile] | 6.00 to 7.00
N#Cc1cccc(-n2cnc(C(=O)NC[C@H]3CCN(C#N)C3)c2)c1 [Example 71, (R)-1-(3-Cyanophenyl)-N-((1-cyanopyrrolidin-3-yl)methyl)-1H-imidazole-4-carboxamide] | > 7.00
N#CN1CC[C@H](CNC(=O)c2cn(-c3ccccc3)cn2)C1 [Example 70, (R)—N-((1-Cyanopyrrolidin-3-yl)methyl)-1-phenyl-1H-imidazole-4-carboxamide] | 5.00 to 6.00
N#CN1CC[C@H](CNc2ncc3ccc(-c4cn[nH]c4)cc3n2)C1 [Example 12, (R)-3-(((7-(1H-Pyrazol-4-yl)quinazolin-2-yl)amino)methyl)pyrrolidine-1-carbonitrile] | 5.00 to 6.00
N#CN1CCC(CNc2ccnc(N3Cc4ccccc4C3)c2)C1 (stereo not drawn) [Example 18, 3-(((2-(isoindolin-2-yl)pyridin-4-yl)amino)methyl)pyrrolidine-1-carbonitrile] | 6.00 to 7.00
N#CN1CCC(CNC(=O)c2cncc(-c3ccc(F)cc3)c2)C1 (stereo not drawn) [Example 33, N-((1-Cyanopyrrolidin-3-yl)methyl)-5-(4-fluorophenyl)nicotinamide] | 6.00 to 7.00
N#CN1CC[C@H](CNC(=O)c2cn3ccc(Cl)cc3n2)C1 [Example 65, (R)-7-Chloro-N-((1-cyano-pyrrolidin-3-yl)methyl) imidazo[1,2-a] pyridine-2-carboxamide] | 5.00 to 6.00
Cc1nn(C)cc1-c1ccc(NCC2CCN(C#N)C2)cc1 (stereo not drawn) [Example 14, 3-(((4-(1,3-Dimethyl-1H-pyrazol-4-yl)phenyl)amino)methyl) pyrrolidine-1-carbonitrile] | 5.00 to 6.00
Cc1cc(C(=O)NCC2CCN(C#N)C2)nn1Cc1ccccc1 (stereo not drawn) [Example 40, 1-Benzyl-N-((1-cyanopyrrolidin-3-yl)methyl)-5-methyl-1H-pyrazole-3-carboxamide] | 5.00 to 6.00
N#CN1CC[C@H](CNC(=O)c2cc(-c3cccc(Cl)c3)no2)C1 [Example 55, (R)-3-(3-Chlorophenyl)-N-((1-cyanopyrrolidin-3-yl)methyl)isoxazole-5-carboxamide] | > 7.00
CC(Nc1nc2ccc(C#N)cc2s1)C1CCN(C#N)C1 (stereo not drawn) [Example 53, 2-((1-(1-Cyanopyrrolidin-3-yl)ethyl)amino)benzo[d]thiazole-6-carbonitrile] | 5.00 to 6.00
N#CN1CC[C@H](CNC(=O)c2cn3cc(-c4ccn[nH]4)ccc3n2)C1 [Example 76] | 5.00 to 6.00
N#CN1CC[C@@H](CNC(=O)c2ccc3c(c2)NC(=O)CO3)C1 [Example 34, (S)—N-((1-Cyanopyrrolidin-3-yl)methyl)-3-oxo-3,4-dihydro-2H-benzo[b][1,4]oxazine-6-carboxamide] | 5.00 to 6.00
N#CN1CCC(CNC(=O)Nc2ccc(C(F)(F)F)cc2)C1 (stereo not drawn) [Example 45, 1-((1-Cyanopyrrolidin-3-yl)methyl)-3-(4-(trifluoromethyl)phenyl)urea] | 6.00 to 7.00
Cc1oncc1-c1ccc2nc(NC(C)C3CCN(C#N)C3)sc2c1 (stereo not drawn) [Example 48, 3-(1-((6-(5-Methylisoxazol-4-yl)benzo[d]thiazol-2-yl)amino)ethyl)pyrrolidine-1-carbonitrile] | 6.00 to 7.00
N#CN1CCC(CNc2nccc(-c3ccccc3)n2)C1 (stereo not drawn) [Example 8, 3-(((4-Phenylpyrimidin-2-yl)amino)methyl)pyrrolidine-1-carbonitrile] | 5.00 to 6.00
CN1C(=O)COc2ccc(C(=O)NCC3CCN(C#N)C3)cc21 (stereo not drawn) [Example 23, N-((1-Cyanopyrrolidin-3-yl)methyl)-4-methyl-3-oxo-3,4-dihydro-2H-benzo[b][1,4]oxazine-6-carboxamide] | 6.00 to 7.00
N#CN1CCC(CNC(=O)Nc2ccc(Cl)cc2Cl)C1 (stereo not drawn) [Example 44, 1-((1-Cyanopyrrolidin-3-yl)methyl)-3-(2,4-dichlorophenyl)urea] | 6.00 to 7.00
N#CN1CCC(CNc2ccc3ccccc3n2)C1 (stereo not drawn) [Example 1, 3-((Quinolin-2-ylamino)methyl)pyrrolidine-1-carbonitrile] | 5.00 to 6.00
